In brackets after ≈: the same amount, converted by molar mass. Activity calls are given as the source filed them. The calls are words filed in the database; no cut-off is given here.
How the values were obtained:
[1] = test system: Liver microsomes; experiment: Antioxidant activity in rat liver microsomes assessed as inhibition of lipid peroxidation by TBA method; format: functional, Microsome
[2] = Inhibition of mouse brain monoamine oxidase by Krajl method
[3] = species: Mus musculus; experiment: Inhibition of mouse brain monoamine oxidase up to 70 ug/mL by Krajl method

Compound | IC50 [1] | IC50 [2] | Activity [3]
VITAMIN E | 0.8 µg/mL |  | 
COc1cc2ccc(=O)oc2cc1O [SCOPOLETIN] |  | 19.4 µg/mL (≈ 101 µM) | 
COc1cc([C@H]2Oc3c(OC)cc4ccc(=O)oc4c3O[C@@H]2CO)ccc1O [CLEOMISCOSIN A] | 9 µg/mL (≈ 23.3 µM) |  | 
COc1c(OC)c(O)c2oc(=O)ccc2c1OC |  | 44.5 µg/mL (≈ 176 µM) | 
COc1cc([C@H]2Oc3c(OC)cc4ccc(=O)oc4c3O[C@@H]2C)cc(OC)c1O | 1.4 µg/mL (≈ 3.5 µM) |  | inactive
COc1cc([C@H]2Oc3c(OC)cc4ccc(=O)oc4c3O[C@@H]2CO)cc(OC)c1O [CLEOMISCOSIN C] | 0.7 µg/mL (≈ 1.68 µM) |  | 
COc1cc([C@@H]2Oc3c(c(OC)cc4ccc(=O)oc34)O[C@H]2CO)cc(OC)c1O [CLEOMISCOSIN D] | 5.5 µg/mL (≈ 13.2 µM) |  | 

Source: ChEMBL document CHEMBL1156348, “Coumarins with monoamine oxidase inhibitory activity and antioxidative coumarino-lignans from Hibiscus syriacus” (J Nat Prod, 2001)
